Results from patent publication US20230113037A1 (Bayer Aktiengesellschaft, priority 2019, published 2023).
Where “and” joins values, the source holds several entries; their conditions need not be identical. Equal entries are not always repeated. Where two headings read alike, the source gives them in different places.

How the values were obtained:
AHR [1] = target: T1, AHR (Mus musculus, UniProt P30561); experiment: In vitro assay 3: antagonism in mouse cell line (AHR transactivation, firefly luciferase reporter, kynurenic acid prestimulated); assay type: cell-based; settings: 200 μM kynurenic acid, 20 hours, read-out: AHR Antagonism Mouse IC50
T1 sequence (P30561 1-848 P471L/N533S/M589L): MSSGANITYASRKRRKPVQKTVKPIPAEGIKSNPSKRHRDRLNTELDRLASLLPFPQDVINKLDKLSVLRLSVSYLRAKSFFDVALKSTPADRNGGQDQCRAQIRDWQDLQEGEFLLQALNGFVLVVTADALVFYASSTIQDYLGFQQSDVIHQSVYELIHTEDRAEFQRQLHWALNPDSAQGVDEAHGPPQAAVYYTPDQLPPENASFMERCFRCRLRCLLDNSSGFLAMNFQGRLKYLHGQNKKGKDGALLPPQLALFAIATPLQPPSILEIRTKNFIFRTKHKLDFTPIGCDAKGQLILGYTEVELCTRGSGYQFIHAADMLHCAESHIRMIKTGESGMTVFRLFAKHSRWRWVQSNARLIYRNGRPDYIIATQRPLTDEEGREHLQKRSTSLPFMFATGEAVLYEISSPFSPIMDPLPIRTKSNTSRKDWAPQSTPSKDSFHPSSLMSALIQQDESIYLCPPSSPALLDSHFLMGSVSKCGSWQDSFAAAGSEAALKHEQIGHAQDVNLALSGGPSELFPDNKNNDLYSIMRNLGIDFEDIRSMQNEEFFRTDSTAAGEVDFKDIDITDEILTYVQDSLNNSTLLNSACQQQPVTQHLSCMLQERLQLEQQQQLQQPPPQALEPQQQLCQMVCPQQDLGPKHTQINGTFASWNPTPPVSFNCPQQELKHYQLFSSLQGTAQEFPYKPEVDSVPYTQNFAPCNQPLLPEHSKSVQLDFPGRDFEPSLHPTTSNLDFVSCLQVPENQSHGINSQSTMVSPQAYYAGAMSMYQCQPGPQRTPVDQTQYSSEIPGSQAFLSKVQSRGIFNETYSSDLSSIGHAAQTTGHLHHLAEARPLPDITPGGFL
Summary of the method: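 Cells were first stimulated with kynurenic acid, then exposed to test compound, after which firefly luciferase from a DRE-containing AHR reporter was read out. Signal was scaled between positive and negative controls. Cells not given kynurenic acid provided the inhibition reference.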

AHR [2] = target: T2, AHR (Homo sapiens, UniProt P35869); experiment: In vitro assay 1: antagonism in human cell line (AHR transactivation, firefly luciferase reporter, kynurenic acid prestimulated); assay type: cell-based; settings: AHR Antagonism Human IC50 [M]
T2 construct: U87 MG glioblastoma cells (ATCC #HTB-14) endogenously expressing AHR; endogenous in cells; host or cells: U87 MG glioblastoma cells (ATCC #HTB-14)
T2 sequence (P35869 11-848): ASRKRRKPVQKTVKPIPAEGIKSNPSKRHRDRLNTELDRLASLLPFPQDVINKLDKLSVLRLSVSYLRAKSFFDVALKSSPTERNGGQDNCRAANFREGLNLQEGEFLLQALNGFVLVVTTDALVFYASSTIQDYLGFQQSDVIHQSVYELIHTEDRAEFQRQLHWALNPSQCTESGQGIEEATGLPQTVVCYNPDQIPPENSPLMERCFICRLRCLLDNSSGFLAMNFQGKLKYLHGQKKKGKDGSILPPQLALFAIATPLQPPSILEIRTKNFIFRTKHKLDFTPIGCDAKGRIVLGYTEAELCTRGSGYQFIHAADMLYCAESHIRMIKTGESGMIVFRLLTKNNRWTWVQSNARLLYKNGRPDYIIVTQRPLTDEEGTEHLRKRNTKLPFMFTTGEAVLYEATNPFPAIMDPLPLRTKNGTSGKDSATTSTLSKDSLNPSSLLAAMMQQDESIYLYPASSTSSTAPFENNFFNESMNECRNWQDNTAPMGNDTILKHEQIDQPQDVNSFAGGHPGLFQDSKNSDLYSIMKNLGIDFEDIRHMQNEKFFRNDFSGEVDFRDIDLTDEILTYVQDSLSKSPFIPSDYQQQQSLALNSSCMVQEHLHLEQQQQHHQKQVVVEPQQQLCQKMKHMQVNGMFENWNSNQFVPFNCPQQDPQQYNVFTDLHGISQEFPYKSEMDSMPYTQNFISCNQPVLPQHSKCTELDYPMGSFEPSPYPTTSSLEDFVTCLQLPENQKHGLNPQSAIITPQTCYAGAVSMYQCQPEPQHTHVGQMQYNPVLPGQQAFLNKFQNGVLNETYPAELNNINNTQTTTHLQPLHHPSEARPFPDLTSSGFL
Summary of the method: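 U87 MG + DRE-firefly/constitutive-Renilla stable reporters; kynurenic acid prestim; dual-luc read; Renilla = tox; normalized vs pos/neg controls (pos: 150 μM KYNA + 5 μM staurosporine).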

[3] = Hepa 1c1c7 cells, firefly luciferase reporter

Row | Structure (SMILES) | IC50 (AHR [1]; mouse Hepa 1c1c7 cells) | IC50 (AHR [2]) | IC50 (AHR [1]; [3]) | IC50 (AHR [2]; firefly luciferase reporter)
1 | CCCCNC(=O)CNc1nc2ccccc2c2nc(-c3cc(Cl)ccc3OC(F)(F)F)nn12 [Example 503, N-butyl-N^2-{2-[5-chloro-2-(trifluoromethoxy)phenyl][1,2,4]triazolo[1,5-c]quinazolin-5-yl}glycinamide] | > 20000 nM | > 2e-05 M | – | –
2 | CS(=N)(=O)c1ccc(-c2nc3c4ccccc4nc(N[C@@H]4CCCCNC4=O)n3n2)cc1 (single isomer, unassigned) [Example 308] | 18.6 nM | 1.1e-07 M | – | –
3 | COc1ccc(-c2nc3c4cccc(Br)c4nc(N[C@H]4COCCNC4=O)n3n2)cc1 [Example 681, (6S)-6-{[7-bromo-2-(4-methoxyphenyl)[1,2,4]triazolo[1,5-c]quinazolin-5-yl]amino}-1,4-oxazepan-5-one] | 13.1 nM | 1.45e-08 M | – | –
4 | O=C1NCCNC[C@H]1Nc1nc2ccccc2c2nc(-c3ccc(Br)o3)nn12 [Example 412, (6R)-6-{[2-(5-bromofuran-2-yl)[1,2,4]triazolo[1,5-c]quinazolin-5-yl]amino}-1,4-diazepan-5-one] | 236 nM | 8.37e-08 M | – | –
5 | COc1ccc2nc(N[C@@H]3CCCCNC3=O)n3nc(-c4ccccc4F)nc3c2c1 [Example 240, (3R)-3-{[2-(2-fluorophenyl)-9-methoxy[1,2,4]triazolo[1,5-c]quinazolin-5-yl]amino}azepan-2-one] | 171 nM | 4.08e-08 M | – | –
6 | Cc1cccc(C)c1-c1nc2c3ccccc3nc(N[C@@H]3CCCCNC3=O)n2n1 [Example 623, (3R)-3-{[2-(2,6-dimethylphenyl)[1,2,4]triazolo[1,5-c]quinazolin-5-yl]amino}azepan-2-one] | 4.65 nM | 3.37e-07 M | – | –
7 | COc1ccc(-c2nc3c4cccc(OCCC(C)(C)OC)c4nc(N[C@@H]4CCCCNC4=O)n3n2)cc1 [Example 996, (3R)-3-{[7-(3-methoxy-3-methylbutoxy)-2-(4-methoxyphenyl)[1,2,4]triazolo[1,5-c]quinazolin-5-yl]amino}azepan-2-one] | – | – | 78.1 nM | 2.8e-07 M
8 | Cn1cc(-c2nc3c4ccccc4nc(NC4CNCCNC4=O)n3n2)cn1 (single isomer, unassigned) [Example 23, 6-{[2-(1-methyl-1H-pyrazol-4-yl)[1,2,4]triazolo[1,5-c]quinazolin-5-yl]amino}-1,4-diazepan-5-one] | 3380 nM | > 2e-05 M and 1.65e-05 M | – | –
9 | Cc1ccccc1-c1nc2c3ccccc3nc(NC3CNCCNC3=O)n2n1 (single isomer, unassigned) [Example 47, 6-{[2-(2-methylphenyl)[1,2,4]triazolo[1,5-c]quinazolin-5-yl]amino}-1,4-diazepan-5-one] | 27.9 nM | 1.86e-08 M | – | –
10 | CCCCNC(=O)[C@H](C)Nc1nc2ccccc2c2nc(-c3ccc(Cl)cc3OC(F)F)nn12 [Example 533, N-butyl-N^2-{2-[4-chloro-2-(difluoromethoxy)phenyl][1,2,4]triazolo[1,5-c]quinazolin-5-yl}alaninamide] | 3.94 nM | 3.72e-09 M | – | –
11 | O=C1NCCCC[C@H]1Nc1nc2ccccc2c2nc(-c3ccc(OC4CC4)cc3)nn12 [Example 612, (3R)-3-({2-[4-(cyclopropyloxy)phenyl][1,2,4]triazolo[1,5-c]quinazolin-5-yl}amino)azepan-2-one] | 1.23 nM | 1.32e-09 M | – | –
12 | Cn1cc(-c2nc3c4cccc(Br)c4nc(N[C@H]4CCCCNC4=O)n3n2)cn1 [Example 580, (3S)-3-{[7-bromo-2-(1H-methyl-1H-pyrazol-4-yl)[1,2,4]triazolo[1,5-c]quinazolin-5-yl]amino}azepan-2-one] | 61.4 nM | 5.4e-08 M | – | –
13 | CC[C@H](Nc1nc2c(Br)cccc2c2nc(-c3ccc(Cl)cc3OC(F)(F)F)nn12)C(N)=O [Example 574, (2S)-2-({7-bromo-2-[4-chloro-2-(trifluoromethoxy)phenyl][1,2,4]triazolo[1,5-c]quinazolin-5-yl}amino)butanamide] | 1.07 nM | 5e-09 M | – | –

The next lines start with the values.

Row | IC50 (AHR [1]; mouse Hepa 1c1c7 cells) | IC50 (AHR [2]) | IC50 (AHR [1]; [3]) | IC50 (AHR [2]; firefly luciferase reporter) | Structure (SMILES)
14 | 2190 nM | 2.96e-06 M | – | – | O=C1NCCCC[C@@H]1Nc1nc2ccccc2c2nc(-c3cnccn3)nn12 [Example 695, (3S)-3-{[2-(pyrazin-2-yl)[1,2,4]triazolo[1,5-c]quinazolin-5-yl]amino}azepan-2-one]
15 | – | – | 5.76 nM | 1.81e-08 M | CC(C)[C@@H](Nc1nc2c(Br)cccc2c2nc(-c3cnn(C)c3)nn12)C(=O)N1CCN(C)CC1 [Example 928, (2R)-2-{[7-bromo-2-(1-methyl-1H-pyrazol-4-yl)[1,2,4]triazolo[1,5-c]quinazolin-5-yl]amino}-3-methyl-1-(4-methylpiperazin-1-yl)butan-1-one]
16 | – | – | 26.1 nM | 2.28e-09 M | COc1ccc(-c2nc3c4cccc(S(C)(=N)=O)c4nc(N[C@@H]4CCCCNC4=O)n3n2)cc1 (single isomer, unassigned) [Example 855]
17 | – | – | 378 nM | 2.57e-08 M | CCOC(=O)[C@@H](C)Nc1nc2c(C(F)(F)F)cccc2c2nc(-c3cnn(C)c3)nn12 [Example 864, ethyl N-[2-(1-methyl-1H-pyrazol-4-yl)-7-(trifluoromethyl)[1,2,4]triazolo[1,5-c]quinazolin-5-yl]-D-alaninate]
18 | – | – | 42 nM | 1.26e-09 M | COc1ccc(-c2nc3c4cccc(C5COC5)c4nc(N[C@@H]4CCCCNC4=O)n3n2)cc1 [Example 1002, (3R)-3-{[2-(4-methoxyphenyl)-7-(oxetan-3-yl)[1,2,4]triazolo[1,5-c]quinazolin-5-yl]amino}azepan-2-one]
19 | – | – | 3 nM | 6.42e-09 M | CCCCNC(=O)[C@@H](CC)Nc1nc2c(Br)cccc2c2nc(-c3ccc(Cl)cc3OC(F)F)nn12 [Example 804, (2R)-2-({7-bromo-2-[4-chloro-2-(difluoromethoxy)phenyl][1,2,4]triazolo[1,5-c]quianzolin-5-yl}amino)-N-butylbutanamide]
20 | 97.8 nM | > 2e-06 M | – | – | CCCCNC(=O)[C@H](C)Nc1nc2c(Br)cccc2c2nc(-c3ccc(Cl)cc3OC(F)(F)F)nn12 [Example 687, N^2-{7-bromo-2-[4-chloro-2-(trifluoromethoxy)phenyl][1,2,4]triazolo[1,5-c]quinazolin-5-yl}-N-butyl-L-alaninamide]
21 | – | – | 4.06 nM | 9.15e-10 M | COCc1cccc2c1nc(N[C@@H]1CCCCNC1=O)n1nc(-c3ccc(OC)cc3)nc21 [Example 1003, (3R)-3-{[7-(methoxymethyl)-2-(4-methoxyphenyl)[1,2,4]triazolo[1,5-c]quinazolin-5-yl]amino}azepan-2-one]
22 | 54.7 nM | 1.47e-08 M | – | – | CCCCNC(=O)[C@@H](C)Nc1nc2c(C(F)(F)F)cccc2c2nc(-c3cnn(C)c3)nn12 [Example 751, N-butyl-N^2-[2-(1-methyl-1H-pyrazol-4-yl)-7-(trifluoromethyl)[1,2,4]triazolo[1,5-c]quinazolin-5-yl]-D-alaninamid]
